The record followed here is patent US10829497B2, “Crystal form II of thienopyridine derivative bisulfate and preparation method therefor and use thereof” (ZHONGRONG KAITE (BEIJING) BIOTECHNOLOGY CO., LTD., priority 2017, dated 2020).

Read-outs that look alike come from different tables or passages of the source.

How the values of the series were obtained:
Stability Study of the Hydrogen Sulfate Crystal Form I and Form II of the Compound of Formula I Under High Temperature and High Humidity Conditions
Setting the hydrogen sulfate crystal form I and form II of the compound of formula I at temperature of 60° C. and high humidity (25° C., relative humidity of 90%±5%) respectively for 10 days. Samples were taken on the 0, 5th and 10th days and determined by high performance liquid chromatography to investigate the changes in impurities.
Chromatographic conditions: Agilent 1100 for high performance liquid chromatography; chromatographic column ULTRON ES-OVM (5 μm, 4.6 mm×150 mm); mobile phase 0.01 mol/L potassium dihydrogen phosphate aqueous solution-acetonitrile (80:20); detection wavelength 220 nm; column temperature 30° C.; flow rate 1.0 mL/min; injection volume 10 μL.
Test method: accurately weighting 5 mg of the test probe, placing it in a 10 mL volumetric flask, adding 1 mL of methanol, dissolving with ultrasound, diluting to the mark with mobile phase and shaking to make a test solution with a concentration of 0.5 mg/mL. Precisely injecting 10 μL of the test solution into the liquid chromatography, recording the chromatogram and calculating the total content of impurities according to peak area normalization method.

With `[2H]C([2H])([2H])OC(=O)[C@H](c1ccccc1Cl)N1CCc2sccc2C1` [Crystal Form I, Methyl-d3 (2S)-2-(2-chlorophenyl)-2-(6,7-dihydrothieno[3,2-c]pyridin-5(4H)-yl)acetate], the “Total Impurity Content (peak area %)” value runs as follows: (High Humidity (25° C., relative humidity of 90%±5%), 0 day, listed as I) 0.386 peak area %; (High Humidity (25° C., relative humidity of 90%±5%), 5th day, listed as I) 0.438 peak area %; (High Humidity (25° C., relative humidity of 90%±5%), 10th day, listed as I) 0.576 peak area %; (High Temperature (60° C.), 0 day, listed as I) 0.386 peak area %; (High Temperature (60° C.), 5th day, listed as I) 0.597 peak area %; (High Temperature (60° C.), 10th day, listed as I) 0.812 peak area %. The “Total Impurity Growth Rate” value reads like this: (High Humidity (25° C., relative humidity of 90%±5%), 10 days, listed as I) 49.2%; (High Temperature (60° C.), 10 days, listed as I) 110%.

Take `[2H]C([2H])([2H])OC(=O)[C@H](c1ccccc1Cl)N1CCc2sccc2C1` [Crystal Form II, Methyl-d3 (2S)-2-(2-chlorophenyl)-2-(6,7-dihydrothieno[3,2-c]pyridin-5(4H)-yl)acetate]: the “Total Impurity Content (peak area %)” value is, setting by setting: (High Humidity (25° C., relative humidity of 90%±5%), 0 day, listed as II) 0.372 peak area %; (High Humidity (25° C., relative humidity of 90%±5%), 5th day, listed as II) 0.409 peak area %; (High Humidity (25° C., relative humidity of 90%±5%), 10th day, listed as II) 0.533 peak area %; (High Temperature (60° C.), 0 day, listed as II) 0.372 peak area %; (High Temperature (60° C.), 5th day, listed as II) 0.526 peak area %; (High Temperature (60° C.), 10th day, listed as II) 0.737 peak area %. The “Total Impurity Growth Rate” value is, setting by setting: (High Humidity (25° C., relative humidity of 90%±5%), 10 days, listed as II) 43.3%; (High Temperature (60° C.), 10 days, listed as II) 98.1%. For the same compound, the “stability compared with the hydrogen sulfate form I” value (high temperature and high humidity conditions, 10 days) is given as “better stability”.
